Reference: patent publication US8026231B2, “Aminothiolester compounds, pharmaceutical and cosmetic compositions containing same and uses thereof” (CNRS, priority 2000, dated 2011)

Legend:
K562 cells = assay: Growth of K562 cells (control, no MDR overexpression); assay type: cell-based, human; details: increasing concentrations, 72 h, FIGS. 7 and 8
Method: (§1) 10^5 cells were incubated in the various wells of a microplate in 1 ml of culture medium. These are R7 cells, on the one hand, and K562 cells, on the other hand.
(§2) After incubating for 4 hours, the test compound (compound of Example 1 according to the invention, on the one hand, and daunorubicin, on the other hand) was added to the wells containing the cells.
(§3) After 72 hours, the cells were collected at different times.
(§4) The growth of the cells was measured by counting the viable cells in the presence of 0.1% Trypan blue.
(§5) FIGS. 7 and 8 respectively represent the percentage inhibition (I %) by daunorubicin and the compound of Example 1 on the growth of the R7 and K562 cells, obtained at increasing concentrations C. The results obtained with the K562 cells are symbolized by ♦ and those obtained with the R7 cells are symbolized by ▴.

BAF3 bcl2 cells = assay: Growth of BAF3 bcl2 cells (viable cell count, Trypan blue); assay type: cell-based, murine; details: 50% inhibition of cell growth
Method: The cells used correspond to two cell lines: metastatic cells of human prostate cancer (DU145) and murine lymphoid cells transfected with the human bcl2 gene (BAF3 bcl2).
The procedure used for the tests on BAF3 bcl2 cells is as follows: • 10^5 cells are incubated in the various wells of a microplate in 1 ml of culture medium. After incubation for 4 hours, the test compounds are added to the wells containing the BAF3 bcl2 cells.
For the BAF3 bcl2 cells, the growth is measured by counting the viable cells in the presence of 0.1% Trypan blue. The control consists of thioampal, disclosed in patent application WO 98/44919.
The IC50 concentration is the concentration corresponding to a 50% inhibition of cell growth.

B16 cells = assay: Growth of B16 cells (protein and DNA assay); assay type: cell-based, mouse; details: 50% inhibition of growth
Method: (§6) The cells used correspond to various cell lines: human lung normal embryonic fibroblasts (MRC5), mouse melanoma cells (B16), mouse lymphocytic leukaemia cells (L1210) and L1210T cells obtained by infecting L1210 cells with a retroviral vector bearing human ALDH1 cDNA.
(§7) The procedure used for the tests on the B16 and MRC5 cells is as follows: • The test compounds are added 4 hours after placing the cells in the wells. After 72 hours, the cells are removed at different times. The B16 and MRC5 cells are washed twice with PBS and recovered directly with 0.1M sodium chloride.
(§8) The effect on the growth of the B16 and MRC5 cells is measured by protein assay according to the Lowry method (Lowry, O. H., Rosenbrough, N. J., Farr, A. L. and Randall, J. Biol. Chem. 193, 265-275, (1951)) and DNA assay by the Hoechst method (West, D. C., Sattar, A. and Kumar, S., Anal. Biochem. 147, 289-295, (1985)).
(§9) The IC50 concentration is the concentration corresponding to a 50% inhibition of growth of the cells.

R7 cells = assay: Growth of R7 cells which overexpress the MDR gene; assay type: cell-based; details: increasing concentrations, 72 h, FIGS. 7 and 8
Method: as §1, §2, §3, §4, §5

BAF3-bcl2 B14 cells = assay: Apoptosis induction (DNA fragmentation) in BAF3-bcl2 clone B14, 24 h; assay type: cell-based, mouse
Method: The BAF3-bcl2 cells correspond to BAF3 cells (mouse lymphocyte cells) tranfected with the bcl2 gene. Among these cells, four lines known as H16, G18, B14 and G21 overexpress the bcl2 gene.
Whereas the BAF3-b0 cells undergo apoptosis (more than 80% of the cells) in the absence of interleukin 3 (IL3) in 16 hours [according to Collins, M. K. L., Marvel, J., Malde, P. & Lopez-Rivas, A., J. Exp. Med. 176, 1043-1051, (1992)], the BAF3-bcl2 cells show no sign of apoptosis in the absence of IL3. They are thus apoptosis-resistant.
The procedure which was used is as follows: • The BAF3-b0 or BAF3-bcl2 cells, cultured in the presence of IL3, were labelled by a method adapted from that disclosed in Wright, S. et al., J. of Cell. Biochem. 48, 344-355, (1992).
10^5 cells/ml were incubated with 4.62 KBq.ml^−1 [^3H]-thymidine for 40 hours at 37° C. After two washes with culture medium, 2.5×10^6 cells were cultured in the presence of the test compound.
After incubating for 24 hours, these cells were recovered by centrifugation at 400×g for 5 minutes and washed 3 times with PBS buffer. The cells recovered in the pellet were lysed in 2 ml of 0.1% Triton X-100, 20 mM EDTA, 5 mM Tris pH 8 and centrifuged at 30 000×g at 4° C. for 30 minutes.
The supernatants were recovered and the pellets dissolved in 0.3 ml of 0.5N NaOH.
Aliquots of the culture medium (1 ml), of the supernatant (0.3 ml) and of the dissolved pellet (0.1 ml) were assayed in a scintillation counter.
The percentage of DNA fragments is calculated in the following way:
The percentage of fragmentation of the DNA is a direct measure of the apoptosis which the cells have undergone.

MRC5 cells = assay: Growth of MRC5 cells (protein and DNA assay); assay type: cell-based, human; details: 50% inhibition of growth
Method: as §6, §7, §8, §9

DU145 cells = assay: Combination of two compounds of the invention on the growth of DU145 cells; assay type: cell-based, human; details: 2 μM
Method: 10^5 normal human prostate cells or 10^5 cancerous human prostate cells (DU145) are incubated in various wells of a microplate in 1 ml of culture medium.
The compounds are added 4 hours after placing the cells in the wells.
After 72 hours, the cells are removed at different times. The DU145 cells or the normal cells are washed twice with PBS and recovered directly with 0.1M sodium chloride.
as §8, with “DU145 cells or the normal” for “B16 and MRC5”

L1210 cells = assay: Growth of L1210 cells (viable cell count, Trypan blue); assay type: cell-based, mouse; details: 50% inhibition of growth
Method: as §6
The procedure used for the tests on the L1210 cells is as follows: • 10^5 cells are incubated in the various wells of a microplate in 1 ml of culture medium. After incubating for 4 hours, the test compounds are added to the wells containing the L1210 cells.
For the L1210 cells, the growth is measured by counting the viable cells in the presence of 0.1% Trypan blue.
as §9

`CSC(=O)C#CC(C)(C)N(C)C` [Example 1, S-methyl 4-dimethyl-amino-4-methyl-2-pentynethioate] was tested, and the “Inhibition of the growth of the K562 cells” value (K562 cells) was “inhibitory effect obtained at the same concentrations on the growth of the K562 cells”, the IC50 (BAF3 bcl2 cells) was 0.25 µM and the IC50 (B16 cells) was 0.8 µM. The “Inhibition of the growth of the R7 cells” value (R7 cells) was “very strongly inhibits the growth of the R7 cells”, the “DNA fragmentation (%)” value (BAF3-bcl2 B14 cells; B14, 1 μM) was 0% and the “DNA fragmentation (%)” value (BAF3-bcl2 B14 cells; B14, 2 μM) was 2.0%. For the same compound, the “DNA fragmentation (%)” value (BAF3-bcl2 B14 cells; B14, 4 μM) was 44.1%, the “DNA fragmentation (%)” value (BAF3-bcl2 B14 cells; B14, 8 μM) was 90.0% and the IC50 (MRC5 cells) was 8.4 µM. For the same compound, the “% Inhibition of DU145 cells” value (DU145 cells) was 21.3% and the IC50 (L1210 cells) was 1.2 µM.
